Source: PubChem BioAssay (NCI)
Values joined by “and” are separate entries in the source; they are usually repeats but may differ in a detail not shown here. Equal values may be shown once.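 Exposure lasted 48 hours, with cells grown in 96-well plates and compounds tested at five concentrations. Here, GI50 denotes the concentration required for 50% inhibition of growth. Definition used: TGI = concentration required for complete inhibition of growth.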

Tests used:
Assay in all cases: growth of human tumour cells (NCI), 48 h
A498 renal = system: A498 renal
A549 NSCLC = system: A549 NSCLC
HCT-15 colon = system: HCT-15 colon
HS 578T breast = system: HS 578T breast
K-562 leukemia = system: K-562 leukemia
NCI/ADR-RES ovarian = system: NCI/ADR-RES ovarian
OVCAR-3 ovarian = system: OVCAR-3 ovarian
OVCAR-5 ovarian = system: OVCAR-5 ovarian
RPMI-8226 leukemia = system: RPMI-8226 leukemia
SK-MEL-28 melanoma = system: SK-MEL-28 melanoma
SK-MEL-5 melanoma = system: SK-MEL-5 melanoma
U251 CNS = system: U251 CNS
OVCAR-4 ovarian = system: OVCAR-4 ovarian

SMILES	TGI (A498 renal)	TGI (A549 NSCLC) [µM]	TGI (HCT-15 colon) [µM]	TGI (HS 578T breast) [µM]	TGI (K-562 leukemia) [µM]	TGI (NCI/ADR-RES ovarian) [µM]	TGI (OVCAR-3 ovarian) [µM]	TGI (OVCAR-5 ovarian) [µM]	TGI (RPMI-8226 leukemia) [µM]	TGI (SK-MEL-28 melanoma) [µM]	TGI (SK-MEL-5 melanoma) [µM]	TGI (U251 CNS) [µM]	TGI (OVCAR-4 ovarian) [µM]	GI50 (A498 renal)	GI50 (OVCAR-5 ovarian)	GI50 (U251 CNS)
O=c1oc2cc(O)ccc2c(O)c1C(c1ccccc1F)c1c(O)c2ccc(O)cc2oc1=O	> 100 µM	> 100	> 100	> 100	69	> 100	> 100	> 100	83.4	> 100	> 100	> 100				
CC1(C)CC(=O)C(/C=N/c2nc(-c3ccccc3)cs2)=C(O)C1		> 100	63.7			> 100	> 100	> 100		> 100	> 100	> 100	> 100			
CCn1c2ccccc2n2c(=O)c3c(c(C#N)c12)CCCC3	> 100 µM	> 100	> 100	> 100	> 100	> 100	> 100	> 100		> 100	> 100	> 100	> 100			
NC(=S)Nc1ccc(S(=O)(=O)Nc2ccc(S(N)(=O)=O)cc2)cc1	> 100 µM	> 100	> 100		> 100	> 100	> 100	> 100	> 100	> 100	> 100	> 100	> 100			
CC(C)Oc1ccc2c(c1)OCC1Cc3ccccc3OC21 (stereo not drawn)	> 100 µM	> 100	46.2		> 100	> 100	> 100	> 100	> 100		47.5	> 100				
COc1cc(OC)c2c(=O)c(OC)c(-c3ccc4c(c3)OCO4)oc2c1	57.1 µM	> 100	> 100	97.6	> 100	> 100	> 100	> 100		> 100	> 100	30.3	> 100			
Cc1cc(C)n(C2OC(CO)C(O)C(O)C2O)c(=S)c1C#N (stereo not drawn)	> 100 µM	> 100	> 100	> 100		> 100	> 100	> 100	> 100	> 100	> 100	> 100	> 100			
CCOP(=O)(O)C1C(CO)OC(n2ccc(=O)[nH]c2=O)C1O (stereo not drawn)	> 100 µM	> 100	> 100	> 100	> 100		> 100		> 100	> 100	> 100		> 100			
COc1cc(OC)cc(-c2nc3cc(F)ccc3s2)c1	62.9 µM	> 100	> 100			> 100	86.3	> 100	> 100		> 100	33.9	> 100			
N#C/C(N)=C(\C#N)N=CN		> 100	> 100	> 100	> 100	> 100	> 100	> 100	> 100	> 100	> 100	> 100	> 100			
CCc1c(C)c(C#N)c(=S)n(C2OC(COC(C)=O)C(OC(C)=O)C(OC(C)=O)C2OC(C)=O)c1C (stereo not drawn)	> 100 µM and 92.4 µM	> 100	> 100		> 100	> 100	> 100	> 100		> 100	> 100	> 100	> 100	> 100 µM and 30.2 µM	> 100 µM and 45.9 µM	> 100 µM and 26.9 µM
O=C1O/C(=C(/Cl)c2cccc3ccccc23)c2ccccc21	> 100 µM	> 100	> 100	> 100	> 100		> 100	> 100	> 100	> 100	> 100	> 100	> 100			
O=C(Cc1ccccc1)N/N=C/c1ccccc1O		> 100	> 100	> 100	> 100	> 100	> 100	> 100	> 100	> 100	49.4	> 100	> 100			
O=C(O)[C@@H]1CSCN1C(=O)[C@@H]1CCC(=S)N1	> 100 µM	> 100	> 100	> 100	> 100	> 100	> 100	> 100	> 100	> 100	> 100					
COc1cc(/C=C2\N=C(c3ccccc3)N(c3nc4c(OC)ccc(OC)c4s3)C2=O)ccc1O	> 100 µM	> 100	> 100	> 100	42.4	> 100	> 100	> 100	62.8	> 100	> 100	> 100				
O=C(O)Cc1cccc2c1OC(c1ccccc1)C(Cl)(C(=O)c1ccccc1)C2=O (stereo not drawn)		86	28.8	99.6	22.6	> 100	31.9		47.4	29.1	28.6	30.9				
COc1ccc(N2C(=O)c3cc(C)cnc3S2(=O)=O)cc1		> 100	> 100	> 100	> 100	> 100	> 100	> 100	> 100	> 100	> 100	> 100	> 100			
Cc1nn(C(=O)Cc2ccccc2)c2c1C(c1ccc(N(C)C)cc1)SC(N)=N2 (stereo not drawn)	> 100 µM	> 100	> 100	> 100					> 100	> 100	> 100					
Cc1cc(=O)n2nc(CN3CCCCC3)sc2n1		> 100	> 100	> 100	> 100	> 100	> 100	> 100	> 100	> 100	> 100	> 100	> 100			
